Measured values: ChEMBL document CHEMBL6127049, “Discovery of the selective and nanomolar inhibitor of DPP-4 more potent than sitagliptin by structure-guided rational design” (Eur J Med Chem, 2024)
The source made the active and inactive calls. The calls are words filed in the database; no cut-off is given here.

Assays:
[1] = Acute toxicity in Balb/C mouse assessed as morphological changes in convulsions at 1250 to 2000 mg/kg, po; assay type: organism-based; conditions: in vivo, dose 1250-2000 mg/kg
Rattus norvegicus [2] = assay: Anti-diabetic activity in normal Wistar rat model assessed as blood glucose level at 10 mg/kg, po followed by treated administered 3 mg/kg orally measured after 60 mins by Oral glucose tolerance test (reference value: 153.74 + /- 3.94 mg/dL); assay type: functional; conditions: 1 h
Rattus norvegicus [3] = assay: Antihyperlipidemic effect in STZ-induced type 2 diabetes male Wistar albino rat model assessed as HDL level at 10 mg/kg, po measured after 4 weeks (reference value: 25.54 +/- 2.62 mg/dL); assay type: functional
Rattus norvegicus [4] = assay: Reduction of serum glutamate pyruvate transaminase (SGPT) level in STZ-induced type 2 diabetes male Wistar albino rat model at 20 mg/kg, po measured after 4 weeks by hepatic function test; assay type: functional, organism-based
Rattus norvegicus [5] = assay: Reduction of alkaline phosphatase (ALP) level in STZ-induced type 2 diabetes male Wistar albino rat model at 10 mg/kg, po measured after 4 weeks by hepatic function test; assay type: functional, organism-based
Rattus norvegicus [6] = assay: Antihyperlipidemic effect in STZ-induced type 2 diabetes male Wistar albino rat model assessed as LDL level at 10 mg/kg, po measured after 4 weeks (reference value: 184.65 +/- 4.57 mg/dL); assay type: functional
Dipeptidyl peptidase 4 = Dipeptidyl peptidase 4 (Homo sapiens, UniProt P27487); assay: Inhibition of DPP4 (unknown origin) assessed as hydrolysis rate using Gly-pro-p-nitroanilide as substrate measured after 20 mins incubation by fluorometric assay
Rattus norvegicus [7] = assay: Reduction of serum glutamate oxaloacetate transaminase (SGOT) level in STZ-induced type 2 diabetes male Wistar albino rat model at 10 mg/kg, po measured after 4 weeks by hepatic function test; assay type: functional, organism-based
Rattus norvegicus [8] = assay: Anti-diabetic activity in normal Wistar rat model assessed as blood glucose level at 10 mg/kg, po followed by treated administered 3 mg/kg orally measured after 90 mins by Oral glucose tolerance test (reference value: 134.11 + /- 4.64 mg/dL); assay type: functional; conditions: 1.5 h
[9] = Acute toxicity in Balb/C mouse assessed as morphological changes in eyes at 1250 to 2000 mg/kg, po; assay type: organism-based; conditions: in vivo, dose 1250-2000 mg/kg
Rattus norvegicus [10] = assay: Reduction of alkaline phosphatase (ALP) level in STZ-induced type 2 diabetes male Wistar albino rat model at 20 mg/kg, po measured after 4 weeks by hepatic function test; assay type: functional, organism-based
[11] = Acute toxicity in Balb/C mouse assessed as morphological changes in nose at 1250 to 2000 mg/kg, po; assay type: organism-based; conditions: in vivo, dose 1250-2000 mg/kg
Rattus norvegicus [12] = assay: Anti-diabetic activity in normal Wistar rat model assessed as blood glucose level at 20 mg/kg, po followed by treated administered 3 mg/kg orally measured immediately after administration by Oral glucose tolerance test (reference value: 105.12 mg/dL); assay type: functional
[13] = Acute toxicity in Balb/C mouse assessed as morphological changes in diarrhea at 1250 to 2000 mg/kg, po; assay type: organism-based; conditions: in vivo, dose 1250-2000 mg/kg
Rattus norvegicus [14] = assay: Anti-diabetic activity in normal Wistar rat model assessed as blood glucose level at 10 mg/kg, po followed by treated administered 3 mg/kg orally measured after 30 mins by Oral glucose tolerance test (reference value: […] 176.14 + /- 4.04 mg/dL); assay type: functional; conditions: 0.5 h
Rattus norvegicus [15] = assay: Anti-diabetic activity in normal Wistar rat model assessed as blood glucose level at 20 mg/kg, po followed by treated administered 3 mg/kg orally measured after 60 mins by Oral glucose tolerance test (reference value: 153.74 + /- 3.94 mg/dL); assay type: functional; conditions: 1 h
Rattus norvegicus [16] = assay: Antihyperlipidemic effect in STZ-induced type 2 diabetes male Wistar albino rat model assessed as total cholesterol level at 10 mg/kg, po measured after 4 weeks (reference value: 227.04 +/- 4.10 mg/dL); assay type: functional
[17] = Acute toxicity in Balb/C mouse assessed as changes in general appearance at 1250 to 2000 mg/kg, po; assay type: organism-based; conditions: in vivo, dose 1250-2000 mg/kg
Rattus norvegicus [18] = assay: Anti-diabetic activity in normal Wistar rat model assessed as blood glucose level at 20 mg/kg, po followed by treated administered 3 mg/kg orally measured after 30 mins by Oral glucose tolerance test (reference value: 176.14 + /- 4.04 mg/dL); assay type: functional; conditions: 0.5 h
Rattus norvegicus [19] = assay: Antihyperlipidemic effect in STZ-induced type 2 diabetes male Wistar albino rat model assessed as HDL level at 20 mg/kg, po measured after 4 weeks (reference value: 25.54 +/- 2.62 mg/dL); assay type: functional
Rattus norvegicus [20] = assay: Antihyperlipidemic effect in STZ-induced type 2 diabetes male Wistar albino rat model assessed as triglyceride level at 20 mg/kg, po measured after 4 weeks (reference value: 190.23 +/- 4.37 mg/dL); assay type: functional
Dipeptidyl peptidase 9 = Dipeptidyl peptidase 9 (Homo sapiens, UniProt Q86TI2); assay: Inhibition of DPP9 (unknown origin) assessed as hydrolysis rate using Gly-pro-p-nitroanilide as substrate measured after 20 mins incubation by […] assay
Rattus norvegicus [21] = assay: Anti-diabetic activity in normal Wistar rat model assessed as blood glucose level at 10 mg/kg, po followed by treated administered 3 mg/kg orally measured after 120 mins by Oral glucose tolerance test (reference value: 126.5 + /- 3.90 mg/dL); assay type: functional; conditions: 2 h
Rattus norvegicus [22] = assay: Reduction of insulin level in STZ-induced type 2 diabetes male Wistar albino rat model at 20 mg/kg, po measured after 4 weeks by hepatic function test; assay type: functional, organism-based
[23] = Acute toxicity in Balb/C mouse assessed as morphological changes in fur at 1250 to 2000 mg/kg, po; assay type: organism-based; conditions: in vivo, dose 1250-2000 mg/kg
Rattus norvegicus [24] = assay: Reduction of serum glutamate pyruvate transaminase (SGPT) level in STZ-induced type 2 diabetes male Wistar albino rat model at 10 mg/kg, po measured after 4 weeks by hepatic function test; assay type: functional, organism-based
Rattus norvegicus [25] = assay: Reduction of serum glutamate oxaloacetate transaminase (SGOT) level in STZ-induced type 2 diabetes male Wistar albino rat model at 20 mg/kg, po measured after 4 weeks by hepatic function test; assay type: functional, organism-based
[26] = Acute toxicity in Balb/C mouse assessed as morphological changes in skin at 1250 to 2000 mg/kg, po; assay type: organism-based; conditions: in vivo, dose 1250-2000 mg/kg
Rattus norvegicus [27] = assay: Antihyperlipidemic effect in STZ-induced type 2 diabetes male Wistar albino rat model assessed as triglyceride level at 10 mg/kg, po measured after 4 weeks (reference value: 190.23 +/- 4.37 mg/dL); assay type: functional
[28] = Acute toxicity in Balb/C mouse assessed as morphological changes in tremors at 1250 to 2000 mg/kg, po; assay type: organism-based; conditions: in vivo, dose 1250-2000 mg/kg
[29] = Acute toxicity in Balb/C mouse assessed as morphological changes in salvation at 1250 to 2000 mg/kg, po; assay type: organism-based; conditions: in vivo, dose 1250-2000 mg/kg
[30] = Acute toxicity in Balb/C mouse assessed as morphological changes in unusual behavior at 1250 to 2000 mg/kg, po; assay type: organism-based; conditions: in vivo, dose 1250-2000 mg/kg
Rattus norvegicus [31] = assay: Antihyperlipidemic effect in STZ-induced type 2 diabetes male Wistar albino rat model assessed as LDL level at 20 mg/kg, po measured after 4 weeks (reference value: 184.65 +/- 4.57 mg/dL); assay type: functional
Rattus norvegicus [32] = assay: Anti-diabetic activity in normal Wistar rat model assessed as blood glucose level at 20 mg/kg, po followed by treated administered 3 mg/kg orally measured after 120 mins by Oral glucose tolerance test (reference value: 126.5 + /- 3.90 mg/dL); assay type: functional; conditions: 2 h
Rattus norvegicus [33] = assay: Anti-diabetic activity in normal Wistar rat model assessed as blood glucose level at 10 mg/kg, po followed by treated administered 3 mg/kg orally measured immediately after administration by Oral glucose tolerance test (reference value: 105.12 mg/dL); assay type: functional
Rattus norvegicus [34] = assay: Antihyperlipidemic effect in STZ-induced type 2 diabetes male Wistar albino rat model assessed as total cholesterol level at 20 mg/kg, po measured after 4 weeks (reference value: 227.04 +/- 4.10 mg/dL); assay type: functional
Dipeptidyl peptidase 8 = Dipeptidyl peptidase 8 (Homo sapiens, UniProt Q6V1X1); assay: Inhibition of DPP8 (unknown origin) assessed as hydrolysis rate using Gly-pro-p-nitroanilide as substrate measured after 20 mins incubation by […] assay
Rattus norvegicus [35] = assay: Anti-diabetic activity in normal Wistar rat model assessed as blood glucose level at 20 mg/kg, po followed by treated administered 3 mg/kg orally measured after 90 mins by Oral glucose tolerance test (reference value: 134.11 + /- 4.64 mg/dL); assay type: functional; conditions: 1.5 h

Dipeptidyl peptidase 4, sequence (P27487 whole entry): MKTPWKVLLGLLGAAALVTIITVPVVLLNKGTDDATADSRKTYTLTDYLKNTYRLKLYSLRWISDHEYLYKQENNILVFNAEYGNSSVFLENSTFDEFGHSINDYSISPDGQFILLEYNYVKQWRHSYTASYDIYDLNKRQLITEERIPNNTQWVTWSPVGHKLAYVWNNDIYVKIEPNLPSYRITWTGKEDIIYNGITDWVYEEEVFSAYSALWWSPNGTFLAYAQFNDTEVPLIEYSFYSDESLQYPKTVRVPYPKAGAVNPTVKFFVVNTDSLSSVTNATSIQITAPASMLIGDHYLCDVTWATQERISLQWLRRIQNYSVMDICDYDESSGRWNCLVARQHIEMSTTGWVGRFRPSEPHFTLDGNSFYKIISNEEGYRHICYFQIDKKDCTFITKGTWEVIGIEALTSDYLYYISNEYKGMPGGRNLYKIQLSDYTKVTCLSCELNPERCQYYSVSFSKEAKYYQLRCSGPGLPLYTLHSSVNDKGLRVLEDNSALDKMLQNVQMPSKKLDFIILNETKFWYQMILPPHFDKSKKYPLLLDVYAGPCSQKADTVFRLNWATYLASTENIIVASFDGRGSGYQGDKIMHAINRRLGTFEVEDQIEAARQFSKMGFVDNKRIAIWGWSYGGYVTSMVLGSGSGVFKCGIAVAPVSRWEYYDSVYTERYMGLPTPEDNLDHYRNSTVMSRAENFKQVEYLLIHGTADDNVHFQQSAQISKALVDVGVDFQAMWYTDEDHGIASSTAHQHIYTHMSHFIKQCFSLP
Dipeptidyl peptidase 8, sequence (Q6V1X1 whole entry): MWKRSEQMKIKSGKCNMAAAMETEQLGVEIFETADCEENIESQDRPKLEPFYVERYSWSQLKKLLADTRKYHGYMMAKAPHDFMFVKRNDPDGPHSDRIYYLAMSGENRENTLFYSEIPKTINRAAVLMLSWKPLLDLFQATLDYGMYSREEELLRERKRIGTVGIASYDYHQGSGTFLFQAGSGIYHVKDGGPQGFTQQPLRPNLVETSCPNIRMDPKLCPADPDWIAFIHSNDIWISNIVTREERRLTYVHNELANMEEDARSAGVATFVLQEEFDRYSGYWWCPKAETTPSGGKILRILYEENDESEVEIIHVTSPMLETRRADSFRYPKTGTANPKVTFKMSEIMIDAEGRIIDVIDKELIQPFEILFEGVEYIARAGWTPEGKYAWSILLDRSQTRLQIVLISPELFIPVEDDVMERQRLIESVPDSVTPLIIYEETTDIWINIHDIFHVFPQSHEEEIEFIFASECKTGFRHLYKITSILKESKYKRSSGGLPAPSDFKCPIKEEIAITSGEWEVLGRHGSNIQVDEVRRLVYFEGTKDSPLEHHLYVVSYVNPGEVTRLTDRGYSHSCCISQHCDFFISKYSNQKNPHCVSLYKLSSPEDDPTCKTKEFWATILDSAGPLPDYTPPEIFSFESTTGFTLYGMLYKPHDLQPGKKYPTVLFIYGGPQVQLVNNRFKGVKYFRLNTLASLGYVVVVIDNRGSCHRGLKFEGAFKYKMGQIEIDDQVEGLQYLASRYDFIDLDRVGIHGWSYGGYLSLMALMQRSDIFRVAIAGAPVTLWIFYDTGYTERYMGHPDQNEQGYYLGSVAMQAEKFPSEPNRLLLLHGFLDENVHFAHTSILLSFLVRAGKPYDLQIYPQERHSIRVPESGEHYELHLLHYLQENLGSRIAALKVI
Dipeptidyl peptidase 9, sequence (Q86TI2 whole entry): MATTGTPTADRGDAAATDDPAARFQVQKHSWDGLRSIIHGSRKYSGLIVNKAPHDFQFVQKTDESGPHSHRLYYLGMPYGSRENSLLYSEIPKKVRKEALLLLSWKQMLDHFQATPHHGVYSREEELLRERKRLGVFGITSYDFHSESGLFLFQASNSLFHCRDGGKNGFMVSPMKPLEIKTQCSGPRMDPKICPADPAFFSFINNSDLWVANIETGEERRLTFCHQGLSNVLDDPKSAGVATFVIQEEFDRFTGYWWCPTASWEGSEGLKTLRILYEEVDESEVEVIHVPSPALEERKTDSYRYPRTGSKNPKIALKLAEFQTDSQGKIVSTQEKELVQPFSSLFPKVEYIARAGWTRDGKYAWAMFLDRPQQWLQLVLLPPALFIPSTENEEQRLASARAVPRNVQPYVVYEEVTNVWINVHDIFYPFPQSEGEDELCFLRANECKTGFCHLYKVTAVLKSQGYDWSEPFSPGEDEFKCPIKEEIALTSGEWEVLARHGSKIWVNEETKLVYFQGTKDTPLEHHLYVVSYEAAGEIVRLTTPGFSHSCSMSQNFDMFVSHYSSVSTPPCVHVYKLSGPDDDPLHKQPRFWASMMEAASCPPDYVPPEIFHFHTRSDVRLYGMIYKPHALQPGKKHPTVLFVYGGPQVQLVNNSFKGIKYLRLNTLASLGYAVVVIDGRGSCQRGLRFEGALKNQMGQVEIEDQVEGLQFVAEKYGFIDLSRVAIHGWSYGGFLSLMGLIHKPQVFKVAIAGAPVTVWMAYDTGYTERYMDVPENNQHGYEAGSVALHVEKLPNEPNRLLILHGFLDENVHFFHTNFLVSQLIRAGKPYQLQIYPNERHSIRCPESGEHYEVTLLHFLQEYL

CC1=C([N+](=O)[O-])C(c2ccc(F)c(F)c2)N=C(N)N1C(=O)CN1CCn2c(nnc2C(F)(F)F)C1 (configuration not stated)
Activity [1]: Non-Toxic
Activity (Rattus norvegicus [2]): 117.43 mg/dL
Activity (Rattus norvegicus [3]): 46.34 mg/dL
Activity (Rattus norvegicus [4]): Active
Activity (Rattus norvegicus [5]): Active
Activity (Rattus norvegicus [6]): 134.87 mg/dL
IC50 (Dipeptidyl peptidase 4): 85 nM
Activity (Rattus norvegicus [7]): Active
Activity (Rattus norvegicus [8]): 109.45 mg/dL
Activity [9]: Non-Toxic
Activity (Rattus norvegicus [10]): Active
Activity [11]: Non-Toxic
Activity (Rattus norvegicus [12]): 103.88 mg/dL
Activity [13]: Non-Toxic
Activity (Rattus norvegicus [14]): 120.87 mg/dL
Activity (Rattus norvegicus [15]): 115.67 mg/dL
Activity (Rattus norvegicus [16]): 154.87 mg/dL
Activity [17]: Non-Toxic
Activity (Rattus norvegicus [18]): 117.46 mg/dL
Activity (Rattus norvegicus [19]): 54.23 mg/dL
Activity (Rattus norvegicus [20]): 119.45 mg/dL
IC50 (Dipeptidyl peptidase 9): 1970 nM
Activity (Rattus norvegicus [21]): 113.91 mg/dL
Activity (Rattus norvegicus [22]): Active
Activity [23]: Non-Toxic
Activity (Rattus norvegicus [24]): Active
Activity (Rattus norvegicus [25]): Active
Activity [26]: Non-Toxic
Activity (Rattus norvegicus [27]): 149.76 mg/dL
Activity [28]: Non-Toxic
Activity [29]: Non-Toxic
Activity [30]: Non-Toxic
Activity (Rattus norvegicus [31]): 115.89 mg/dL
Activity (Rattus norvegicus [32]): 111.1 mg/dL
Activity (Rattus norvegicus [33]): 104.01 mg/dL
Activity (Rattus norvegicus [34]): 137.56 mg/dL
IC50 (Dipeptidyl peptidase 8): 1340 nM
Activity (Rattus norvegicus [35]): 107.56 mg/dL

CC1=C(CC(=O)N2CCCC2C#N)C(C)NC(=O)N1 (configuration not stated)
IC50 (Dipeptidyl peptidase 4): 1030 nM

CC1=C(CC(=O)N2CCn3c(nnc3C(F)(F)F)C2)C(c2ccc(F)c(F)c2)NC(=O)N1 (configuration not stated)
IC50 (Dipeptidyl peptidase 4): 1060 nM

Cc1nc(N2CCCC2C#N)nc(C)c1CC(=O)O (configuration not stated)
IC50 (Dipeptidyl peptidase 4): 1230 nM

CC1=C([N+](=O)[O-])C(c2ccc(F)c(F)c2)N=C(N)N1C(=O)CN1CCCC1C#N (configuration not stated)
IC50 (Dipeptidyl peptidase 4): 710 nM

CC1=C(CC(=O)N2Cc3cn(S(C)(=O)=O)nc3C2)C(c2ccc(F)c(F)c2)NC(=O)N1 (configuration not stated)
IC50 (Dipeptidyl peptidase 4): 478 nM

CC1=C(CC(=O)N2CCCC(N)C2)C(c2ccc(F)c(F)c2)NC(=O)N1 (configuration not stated)
IC50 (Dipeptidyl peptidase 4): 1040 nM

CC1=C([N+](=O)[O-])C(c2ccc(F)c(F)c2)N=C(N)N1C(=O)CN1CCC[C@H]1C(=O)O (some centres not stated)
IC50 (Dipeptidyl peptidase 4): 2540 nM

Cc1nc(N2CCCC(N)C2)nc(C)c1CC(=O)O (configuration not stated)
IC50 (Dipeptidyl peptidase 4): 1400 nM

CC1=C(CC(=O)N2Cc3cn(S(C)(=O)=O)nc3C2)C(C)NC(=O)N1 (configuration not stated)
IC50 (Dipeptidyl peptidase 4): 942 nM
